# Reference: paper PMC6131351, “Pharmacological difference between degrader and inhibitor against oncogenic BCR-ABL kinase” (Scientific Reports, 2018)
# Residues, ends and D or L forms follow the SMILES beside them. No end group written: not given here. *: point of attachment. 5FAM = O=C1OC2(c3ccc(O)cc3Oc3cc(O)ccc32)c2ccc(C(=O)*)cc21; Cbz = O=C(OCc1ccccc1)*; CH2F = FC*
# Tests used:
# BCR-ABL protein = target: T1, BCR-ABL protein (Homo sapiens, UniProt P00519+P11274); experiment: Protein knockdown by western blot in K562 cells; format: cell-based; settings: 6 h, 1-300 nM
# T1 construct: examined for their activity to degrade BCR-ABL in K562 cells for 6 h; BCR (fusion partner, P11274, N-terminal part); endogenous in cells; host or cells: K562
# T1 sequence (P11274+P00519 fused): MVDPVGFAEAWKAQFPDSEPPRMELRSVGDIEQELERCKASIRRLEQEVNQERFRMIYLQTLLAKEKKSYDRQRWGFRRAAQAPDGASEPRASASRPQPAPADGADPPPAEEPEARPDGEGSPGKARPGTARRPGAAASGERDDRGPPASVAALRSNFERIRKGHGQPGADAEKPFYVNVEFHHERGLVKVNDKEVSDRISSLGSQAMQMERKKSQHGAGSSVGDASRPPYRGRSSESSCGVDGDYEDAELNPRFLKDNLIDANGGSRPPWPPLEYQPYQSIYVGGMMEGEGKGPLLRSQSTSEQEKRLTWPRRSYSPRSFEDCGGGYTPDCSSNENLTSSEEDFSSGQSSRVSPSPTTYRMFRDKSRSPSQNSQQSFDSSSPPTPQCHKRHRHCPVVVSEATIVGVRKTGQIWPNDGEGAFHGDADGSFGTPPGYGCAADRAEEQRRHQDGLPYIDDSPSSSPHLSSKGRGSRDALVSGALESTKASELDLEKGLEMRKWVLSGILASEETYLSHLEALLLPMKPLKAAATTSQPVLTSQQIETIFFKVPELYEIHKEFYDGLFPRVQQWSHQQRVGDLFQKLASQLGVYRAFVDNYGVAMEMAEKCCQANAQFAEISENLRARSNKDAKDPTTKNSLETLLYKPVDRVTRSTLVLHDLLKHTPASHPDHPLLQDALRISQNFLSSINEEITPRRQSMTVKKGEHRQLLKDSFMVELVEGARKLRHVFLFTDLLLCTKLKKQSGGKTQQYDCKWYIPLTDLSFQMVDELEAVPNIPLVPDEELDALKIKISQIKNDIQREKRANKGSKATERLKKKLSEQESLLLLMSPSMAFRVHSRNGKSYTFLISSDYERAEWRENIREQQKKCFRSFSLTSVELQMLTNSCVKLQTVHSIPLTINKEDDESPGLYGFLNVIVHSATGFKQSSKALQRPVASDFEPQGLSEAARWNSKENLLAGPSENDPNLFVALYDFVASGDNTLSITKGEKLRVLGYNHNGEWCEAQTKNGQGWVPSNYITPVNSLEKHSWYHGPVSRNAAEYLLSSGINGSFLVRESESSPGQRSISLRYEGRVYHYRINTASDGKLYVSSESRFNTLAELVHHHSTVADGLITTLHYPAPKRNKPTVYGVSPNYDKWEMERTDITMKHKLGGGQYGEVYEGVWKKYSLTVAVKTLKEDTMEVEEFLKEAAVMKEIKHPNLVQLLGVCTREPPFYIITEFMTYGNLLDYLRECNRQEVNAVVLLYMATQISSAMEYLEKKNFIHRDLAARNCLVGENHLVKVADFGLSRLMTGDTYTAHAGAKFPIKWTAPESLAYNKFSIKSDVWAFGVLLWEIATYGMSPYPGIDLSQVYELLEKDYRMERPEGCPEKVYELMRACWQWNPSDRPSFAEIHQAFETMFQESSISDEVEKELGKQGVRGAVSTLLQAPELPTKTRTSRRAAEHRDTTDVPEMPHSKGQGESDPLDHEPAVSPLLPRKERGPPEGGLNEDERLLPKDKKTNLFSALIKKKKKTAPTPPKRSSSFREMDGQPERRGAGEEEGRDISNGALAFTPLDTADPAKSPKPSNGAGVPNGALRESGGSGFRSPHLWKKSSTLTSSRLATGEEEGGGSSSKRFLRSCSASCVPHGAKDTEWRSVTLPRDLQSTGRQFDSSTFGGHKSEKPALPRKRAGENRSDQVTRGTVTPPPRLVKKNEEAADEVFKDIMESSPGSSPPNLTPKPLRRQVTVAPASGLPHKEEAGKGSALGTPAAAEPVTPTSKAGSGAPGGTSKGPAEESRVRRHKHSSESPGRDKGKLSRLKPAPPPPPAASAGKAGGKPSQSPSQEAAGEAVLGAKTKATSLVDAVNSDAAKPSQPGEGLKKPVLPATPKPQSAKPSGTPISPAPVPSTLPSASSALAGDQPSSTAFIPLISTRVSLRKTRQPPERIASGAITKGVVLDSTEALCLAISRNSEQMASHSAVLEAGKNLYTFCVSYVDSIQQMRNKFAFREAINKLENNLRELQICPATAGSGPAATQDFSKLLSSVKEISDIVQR
# Protocol: (§1) Cells were collected and lysed in a lysis buffer (0.5% Triton X-100, 0.01 M Tris-HCl (pH 7.5), 0.15 M NaCl, Complete Mini protease inhibitor cocktail (Roche Applied Science, Indianapolis, IL, USA) and PhosStop phosphatase inhibitor cocktail (Roche Applied Science)). Protein concentrations were measured by the BCA method (Thermo Fisher Scientific) and an equal amount of protein lysate was separated by SDS-PAGE, transferred to polyvinylidene difluoride membranes (Merck Millipore) and analyzed by western blot using an appropriate antibody. The immunoreactive proteins were visualized using Clarity Western ECL substrate (Bio-Rad, Hercules, CA, USA) and their light emission was quantified with a LAS-3000 lumino-image analyzer (Fuji, Tokyo, Japan).
# [1] = tested on: caspase 3 activation and PARP cleavage; experiment: Caspase activation and PARP cleavage after drug removal in K562 cells; format: cell-based, Human
# Protocol: as §1, with “Japan). The following antibodies were used: anti-cAbl rabbit polyclonal antibody (pAb) (#2862), anti-XIAP rabbit pAb (#2042), anti-phospho-cAbl rabbit pAb (#3009), anti-STAT5 rabbit pAb (#9363), anti-phospho-STAT5 rabbit pAb (#9359), anti-CrkL mouse monoclonal antibody (mAb) (#3182) and anti-phospho-CrkL rabbit pAb (#3181), anti-PARP rabbit pAb (#9532), and anti-cleaved Caspase 3 rabbit pAb (#9664) (Cell Signaling Technology, Danvers, MA, USA); anti-β-tubulin (ab6046) rabbit pAb (Abcam, Cambridge, UK) and anti-GAPDH rabbit pAb (sc-25778 HRP) (Santa Cruz, Dallas, TX, USA); anti-cIAP1 goat pAb (AF8181) (R&D systems).” for “Japan).”
# (§2) Cells were seeded at a concentration of 2 × 10^6 cells per 10-cm tissue culture dish and treated with the indicated compounds for the indicated times. Then, the cells were washed three times to remove the compounds, and incubated in drug-free medium for the indicated times.
# K562 cells [2] = experiment: WST cell growth inhibition, K562; format: cell-based, Human; settings: 48 h
# Protocol: (§3) Human CML (K562 and KU812 cells), acute T-lymphoblast leukemia (MOLT-4 cell), and T cell leukemia (Jurkat cell) were cultured in Roswell Park Memorial Institute-1640 medium (Sigma-Aldrich, St. Louis, MO, USA) containing 10% fetal bovine serum (Thermo Fisher Scientific, Waltham, MA, USA) and 50 μg/ml kanamycin (Sigma-Aldrich). KU812 cells were obtained from Japanese Collection of Research Bioresources (JCRB, Osaka, Japan) Cell Bank (JCRB0104)[58].
# (§4) Cell viability was determined using water-soluble tetrazolium WST-8 (4-[3-(2-methoxy-4-nitrophenyl)-2-(4-nitrophenyl)-2H-5-tetrazolio]-1,3-benzene disulfonate) for the spectrophotometric assay and conducted according to the manufacturer’s instructions (Dojindo, Tokyo, Japan). Cells were seeded at a concentration of 5 × 10^3 cells per well in a 96-well culture plate, and treated with the indicated compounds for 48 h. The WST-8 reagent was added, and the cells were incubated for 0.5 h at 37 °C in a humidified atmosphere of 5% CO2. The absorbance at 450 nm of the medium was measured using the EnVision Multilabel Plate Reader.
# KU812 cells = experiment: WST cell growth inhibition, KU812; format: cell-based; settings: Homo sapiens, 48 h, WST assay, means ± SD (n = 3)
# Protocol: as §3, §4
# [3] = tested on: phosphorylation of BCR-ABL, STAT5 and CrkL; experiment: Downstream kinase signaling (phosphorylation) by western blot in K562 cells; format: cell-based, Human
# Protocol: as §1, with “Japan). The following antibodies were used: anti-cAbl rabbit polyclonal antibody (pAb) (#2862), anti-XIAP rabbit pAb (#2042), anti-phospho-cAbl rabbit pAb (#3009), anti-STAT5 rabbit pAb (#9363), anti-phospho-STAT5 rabbit pAb (#9359), anti-CrkL mouse monoclonal antibody (mAb) (#3182) and anti-phospho-CrkL rabbit pAb (#3181), anti-PARP rabbit pAb (#9532), and anti-cleaved Caspase 3 rabbit pAb (#9664) (Cell Signaling Technology, Danvers, MA, USA); anti-β-tubulin (ab6046) rabbit pAb (Abcam, Cambridge, UK) and anti-GAPDH rabbit pAb (sc-25778 HRP) (Santa Cruz, Dallas, TX, USA); anti-cIAP1 goat pAb (AF8181) (R&D systems).” for “Japan).”
# as §2
# K562 cells [4] = experiment: Washout experiment, cell counting of K562 cells; format: cell-based, Human; settings: 25 or 50 times IC50 for 12 h, washed, drug-free medium for 6 d
# Protocol: as §2
# [5] = target: T2, recombinant His-tagged human XIAP (BIR3, Asn252-Thr356) (human, UniProt P98170 252-356); experiment: AlphaScreen or HTRF; TR-FRET competition assay: 0.6 nM His-IAP BIR3 held by biotinylated anti-His antibody and terbium-streptavidin, FITC-Smac probe (27 nM for XIAP, 12 nM for cIAP1, 19 nM for cIAP2), small-molecule test compounds as competitors; 50 mM HEPES pH 7.2-7.5, 10 mM MgCl2, 1 mM EGTA, 0.1 mM DTT, 0.01% Brij 35; room temperature; settings: both partners purified
# T2 construct: XIAP, human, BIR3 domain, residues Asn252-Thr356; also called His-IAP proteins; source: bought: R&D Systems (895-XB-050)
# T2 sequence (P98170 252-356): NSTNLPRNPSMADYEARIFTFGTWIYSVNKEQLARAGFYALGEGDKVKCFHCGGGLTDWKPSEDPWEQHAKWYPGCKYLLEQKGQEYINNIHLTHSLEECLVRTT
# [6] = target: T3, recombinant His-tagged human cIAP1 (BIR3, Leu250-Gly350) (human, UniProt Q13490 250-350); experiment: as above; settings: both partners purified
# T3 construct: cIAP1, human, BIR3 domain, residues Leu250-Gly350; also called His-IAP proteins; source: E. coli, purified (Ni-NTA column, gel filtration chromatography)
# T3 sequence (Q13490 250-350): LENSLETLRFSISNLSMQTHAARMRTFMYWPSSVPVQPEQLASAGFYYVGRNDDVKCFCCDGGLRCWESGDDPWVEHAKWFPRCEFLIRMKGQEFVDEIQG
# [7] = target: T4, recombinant His-tagged human cIAP2 (BIR3, Gln238-Ser349) (human, UniProt Q13489 238-349); experiment: as above; settings: both partners purified
# T4 construct: cIAP2, human, BIR3 domain, residues Gln238-Ser349; also called His-IAP proteins; source: E. coli, purified (Ni-NTA column, gel filtration chromatography)
# T4 sequence (Q13489 238-349): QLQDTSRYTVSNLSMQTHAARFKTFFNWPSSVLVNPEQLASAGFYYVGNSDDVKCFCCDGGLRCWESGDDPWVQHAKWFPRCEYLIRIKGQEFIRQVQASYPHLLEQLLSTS
molecule,measurement,setting,value
CCN1CCN(Cc2ccc(NC(=O)c3cccc(-c4ccc5nc(NC(=O)COCCOCCOCCOc6cccc(C(=O)c7csc([C@@H]8CCCN8C(=O)[C@@H](NC(=O)[C@H](C)NC)C8CCCCC8)n7)c6)sc5n4)c3)cc2C(F)(F)F)CC1 [HG-IAP],knockdown activity against the BCR-ABL protein,BCR-ABL protein,weak
"COC(=O)C[C@H](NC(=O)[C@H](C)NC(=O)[C@@H](NC(=O)OCc1ccccc1)C(C)C)C(=O)CF [zVAD-FMK, reference compound] (Cbz-Val-Ala-Asp(OMe)-CH2F)",effect on caspase activation and PARP cleavage by DAS-IAP,"[1]; K562, after DAS-IAP pulse and drug removal, 24 h",abrogated
Cc1nc(Nc2ncc(C(=O)Nc3c(C)cccc3Cl)s2)cc(N2CCN(C(=O)COCCOCCOCC(=O)N[C@H](C(=O)N3C[C@H](O)C[C@H]3C(=O)NCc3ccc(-c4scnc4C)cc3)C(C)(C)C)CC2)n1 [DAS-VHL],knockdown activity against the BCR-ABL protein,BCR-ABL protein,negligible activity
CCN1CCN(Cc2ccc(NC(=O)c3cccc(-c4ccc5nc(NC(=O)COCCOCCOCC(=O)N[C@H](C(=O)N6C[C@H](O)C[C@H]6C(=O)NCc6ccc(-c7scnc7C)cc6)C(C)(C)C)sc5n4)c3)cc2C(F)(F)F)CC1 [HG-VHL],suppression of K562 cell growth (comparison),K562 cells [2]; WST assay,more potent suppression of the growth of K562 cells than HG-IAP and HG-CRBN
same,knockdown activity against the BCR-ABL protein,BCR-ABL protein,effective protein knockdown activity
"Cc1nc(Nc2ncc(C(=O)Nc3c(C)cccc3Cl)s2)cc(N2CCN(CCO)CC2)n1 [Dasatinib, dasatinib, reference compound]",times more active than DAS-IAP to inhibit CML cell growth,K562 cells [2],100 times
same,IC50,"K562 cells [2]; Homo sapiens, WST assay, means ± SD (n = 3)",0.0793 ± 0.0037 nM
same,IC50,KU812 cells,0.0448 ± 0.0005 nM
same,"phosphorylation of BCR-ABL, STAT5 and CrkL","[3]; K562, 50 times IC50 for 12 h (time 0)",inhibited
same,"phosphorylation of BCR-ABL, STAT5 and CrkL","[3]; K562 cells, 6 h",suppressed
same,growth of K562 cells after drug removal,K562 cells [4],slightly delayed the growth
same,caspase 3 activation and PARP cleavage,"[1]; K562, 50 times IC50 for 12 h, drug removal for 24 h",not
"AVPIAQK(5FAM)-NH2 (N-terminus assumed; SMILES CC[C@H](C)[C@H](NC(=O)[C@@H]1CCCN1C(=O)[C@@H](NC(=O)[C@H](C)N)C(C)C)C(=O)N[C@@H](C)C(=O)N[C@@H](CCC(N)=O)C(=O)N[C@@H](CCCCNC(=O)c1ccc2c(c1)C(=O)OC21c2ccc(O)cc2Oc2cc(O)ccc21)C(N)=O, N-terminal stretch of mature Smac (DIABLO); Fluorescent probe of the TR-FRET assay; source: synthetic peptide (synthesized in Scrum, Tokyo)) [FITC-labeled Smac peptide (FITC-Smac, AVPIAQK(5-FAM)-NH2)]",binding result,[5],binds
same,binding result,[6],binds
same,binding result,[7],binds
